# Key:
# [1] = target: T1, ATP-dependent translocase ABCB1 (Homo sapiens, UniProt P08183); assay: TP_TRANSPORTER: inhibition of Cyclosporin A transepithelial transport (basal to apical) (Cyclosporin A: 1 uM) in Caco-2 cells; assay type: functional, cell-based
# [2] = target: T1, ATP-dependent translocase ABCB1; assay: TP_TRANSPORTER: inhibition of Digoxin transepithelial transport (basal to apical) (Digoxin: 5 uM) in Caco-2 cells; assay type: functional, cell-based
# T1 sequence (P08183 whole entry): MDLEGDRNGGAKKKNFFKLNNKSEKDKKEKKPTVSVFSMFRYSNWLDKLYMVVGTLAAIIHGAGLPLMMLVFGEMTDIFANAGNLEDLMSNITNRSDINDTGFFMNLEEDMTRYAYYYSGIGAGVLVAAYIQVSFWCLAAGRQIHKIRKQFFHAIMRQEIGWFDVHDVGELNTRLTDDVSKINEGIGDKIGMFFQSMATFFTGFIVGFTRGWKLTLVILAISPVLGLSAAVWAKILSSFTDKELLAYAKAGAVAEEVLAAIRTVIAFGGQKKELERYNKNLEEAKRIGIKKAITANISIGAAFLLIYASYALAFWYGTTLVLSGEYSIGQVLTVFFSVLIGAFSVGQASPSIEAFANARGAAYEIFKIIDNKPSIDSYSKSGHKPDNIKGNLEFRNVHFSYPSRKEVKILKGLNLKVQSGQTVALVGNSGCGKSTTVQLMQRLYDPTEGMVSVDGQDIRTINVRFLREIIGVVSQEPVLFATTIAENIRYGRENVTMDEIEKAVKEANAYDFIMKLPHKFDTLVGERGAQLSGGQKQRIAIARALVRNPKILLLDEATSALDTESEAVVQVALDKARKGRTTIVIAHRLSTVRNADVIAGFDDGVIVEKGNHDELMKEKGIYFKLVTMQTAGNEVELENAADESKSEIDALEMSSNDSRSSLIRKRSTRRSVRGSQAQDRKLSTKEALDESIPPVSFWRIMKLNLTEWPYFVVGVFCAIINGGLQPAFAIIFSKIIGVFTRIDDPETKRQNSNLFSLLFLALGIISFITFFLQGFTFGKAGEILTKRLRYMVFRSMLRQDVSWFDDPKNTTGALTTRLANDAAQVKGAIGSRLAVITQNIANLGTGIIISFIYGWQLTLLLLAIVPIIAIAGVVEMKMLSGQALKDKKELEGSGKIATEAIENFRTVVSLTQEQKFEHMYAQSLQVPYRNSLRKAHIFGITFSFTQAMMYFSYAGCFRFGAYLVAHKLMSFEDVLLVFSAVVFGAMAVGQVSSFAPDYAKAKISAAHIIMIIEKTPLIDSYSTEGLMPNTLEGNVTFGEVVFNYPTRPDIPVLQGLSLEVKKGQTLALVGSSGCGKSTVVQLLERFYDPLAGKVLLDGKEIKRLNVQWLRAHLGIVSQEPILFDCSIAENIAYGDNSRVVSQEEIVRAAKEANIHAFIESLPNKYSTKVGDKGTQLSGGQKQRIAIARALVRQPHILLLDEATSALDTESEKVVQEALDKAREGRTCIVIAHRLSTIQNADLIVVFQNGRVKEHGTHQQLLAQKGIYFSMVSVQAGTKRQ
smiles,measurement,setting,value
O=C(/C=C/C=C/c1ccc2c(c1)OCO2)N1CCCCC1 [PIPERINE],IC50,[1],74.1 µM
same,IC50,[2],15.5 µM
